Results from patent US9163066B2, “Antimicrobial lytic peptides” (priority 2010, dated 2015).
Where two headings read alike, the source gives them in different places.

Experiments:
angiogenesis = conditions: known activity, seen as a safety problem for humans; cited from earlier work
bacteria = assay: Antibacterial activity of the peptides, broth microdilution MIC, mean activity (Table II); type: cell-based; conditions: overnight incubation (18 to 24 h)
Description: Minimum Inhibitory Concentration or MIC for the purpose of this invention is the lowest concentration of an antimicrobial that will inhibit the visible growth of a microorganism after overnight incubation. Minimum inhibitory concentrations are important in diagnostic laboratories to confirm resistance of microorganisms to an antimicrobial agent and also to monitor the activity of new antimicrobial agents. A MIC is generally regarded as the most basic laboratory measurement of the activity of an antimicrobial agent against an organism. MBC is defined as the lowest concentration of an antimicrobial agent needed to kill 99.9% of the initial organism inoculum. Presently, specific guidelines for interpretation are not available; therefore, a clinician knowledgeable in both bactericidal testing and infectious diseases should be available to interpret the results.
MICs were determined by the broth microdilution method described by the National Committee for Clinical Laboratory Standards (17). Serial twofold dilutions of each peptide solution were prepared (final volume, […]) in microtiter trays with appropriate medium. Each dilution series included control wells containing bacteria without peptide. A total of […] of the adjusted inoculum (100,000 organisms) was added to each well, and then the trays were incubated at
in ambient air overnight (18 to 24 h). The MIC of each peptide for each isolate was read as the lowest concentration of peptide that inhibited visible growth of the organism.
The above in vitro tests and analyses were conducted on a set of designed peptides of the present invention; and, for comparative purposes, naturally derived molecules.

Xanthomonas campestris = assay: Antimicrobial activity against pathogens (MIC80 / MBC100); type: cell-based
Excerpt: (§1) A comparison of antimicrobial activity for these two naturally occurring peptides against various pathogens (combined fungal and bacterial) is summarized below

Aspergillus flavus = assay: as above; type: cell-based
Excerpt: as §1

Fusarium moniliforme = assay: as above; type: cell-based
Excerpt: as §1

[1] = system: red blood cells (erythrocytes); assay: Hemolytic activity of the peptides (hemoglobin release, absorbance at 412 nm); type: cell-based
Description: Hemolysis as defined herein is an in vitro assay where the compounds tendency to lyse red blood cells is determined. Presumably, the compounds that are less hemolytic will be less toxic in vivo. Increasing amounts of compound are added to solutions containing red blood cells and left for a specified time and then lysis is determined spectrophotometrically by measuring hemoglobin release.
A small volume of a suspension of erythrocytes (about 100 million) is kept on ice with a specific amount of lytic peptide. The cells are then placed in a 37° C. water bath for 10 min, vortexed and centrifuged at 1000 g for 2 min. The supernatant was removed and the amount of hemoglobin that was released was determined by the samples' absorbance at 412 nm. Control values without added peptide were subtracted from the absorbance readings.
The numerical difference between the value of the mean of hemolysis and the mean of the activity is a useful way to determine those peptides having the most desired activity.

[2] = system: pathogens of cotton, poplar and pome fruits such as pears and apples; conditions: tested by a number of labs throughout the world; cited from earlier work
Fusarium oxysporum = assay: Antimicrobial activity against pathogens (MIC80 / MBC100); type: cell-based; conditions: concentration necessary to kill 100%
Excerpt: as §1

Erwinia stewartii = assay: as above; type: cell-based; conditions: concentration necessary to kill 100%
Excerpt: as §1

Aspergillus fumigatus = assay: as above; type: cell-based; conditions: concentration necessary to kill 100%
Excerpt: as §1

[3] = concentration of TP necessary to limit growth by 80%
[4] = concentration necessary to kill 100%

Row | Sequence | activities in mammals (angiogenesis) | Mean Activity (bacteria) [µM] | TP MIC80 (Xanthomonas campestris; [3]) [µM] | TP MIC80 (Aspergillus flavus; [3]) [µM] | TP MIC80 (Fusarium moniliforme; [3]) [µM] | Mean of Hemolysis ([1]; erythrocytes, 37° C. for 10 min) [µM] | efficacy in limiting plant pathogens [2] | D4E1 MBC100 (Xanthomonas campestris; [4]) [µM] | D4E1 MBC100 (Aspergillus flavus; concentration of D4E1 necessary to kill 100% of the pathogens) [µM] | D4E1 MBC100 (Fusarium oxysporum) [µM] | D4E1 MBC100 (Erwinia stewartii) [µM] | D4E1 MBC100 (Aspergillus fumigatus) [µM] | D4E1 MBC100 (Fusarium moniliforme; [4]) [µM] | Mean of Hemolysis [1] [µM]
1 | RRRPRPPYLPRPRPPPFFPPRLPPRIPPGFPPRFPPRFP [PR39, antimicrobial peptide found in swine] | stimulation of angiogenesis |  |  |  |  |  |  |  |  |  |  |  |  | 
2 | KWCFRVCYRGICYRRCR [TP, defensin-like peptide found in the hemolymph of the horseshoe crab] |  | 0.3 | 0.77 | 34 | 21 | 3 |  |  |  |  |  |  |  | 
3 | FKLRAKIKVRLRAKIKL [D4E1, D4E1 (AgroMed), earlier synthetic lytic peptide tested by a number of labs] |  | 0.77 |  |  |  |  | efficacious in limiting pathogens of cotton, poplar and pome fruits | 2 | 12 | 3 | 1 | 12 | 3 | 3.6
